Reference: patent US20240024514A1, “RECOMBINANT ADENO-ASSOCIATED VIRUSES WITH ENHANCED LIVER TROPISM AND USES THEREOF” (priority 2020, published 2024)

Columns and labels:
HBV DNA [1] = assay: HBV DNA in HBV transgenic mice; format: in vivo; settings: blood, LAM 150 mg/kg, ETV 3.2 mg/kg, rAAV 3 × 10^10 vg/animal
Experimental: (§1) scAAV2/X-H1-shRNA-intron2 and scAAV2/8-H1-shRNA-intron2 were administered to HBV transgenic mice (Beijing Vitalstar Biotechnology Co., Ltd, B6-Tg HBV/Vst; C57BL/6-HBV) via intravenous injection, respectively. Epivir® (Lamivudine) and Baraclude® (Entecavir) were used as controls. Blood was collected on days 0, 7, 14, 21, 28, 35, 56, 84, 112, 140, 168, 196, 224, and 252, centrifuged, and assayed for the level of HBsAg, HBeAg, and HBV DNA.

HBsAg = HBsAg in HBV transgenic mice; format: in vivo; settings: blood, LAM 150 mg/kg, ETV 3.2 mg/kg, rAAV 3 × 10^10 vg/animal
Experimental: as §1

HBeAg = HBeAg in HBV transgenic mice; format: in vivo; settings: blood, ETV 3.2 mg/kg, rAAV 3 × 10^10 vg/animal
Experimental: as §1

HBV HBeAg = assay: suppression of HBV HBeAg in HepG2.2.15 cells; format: cell-based, Hepatitis B virus; settings: 1 ug/mL
Experimental: (§2) scAAV2/X-H1-shRNA-intron2 and scAAV2/8-H1-shRNA-intron2 were used to infect HepG2.2.15 cells with increased Multiplicity of Infection (MOI). The levels of HBV HBeAg, HBV HBsAg, and HBV DNA in samples were measured by HBV HBeAg diagnostic kit (Beijing Wantai Biopharmaceuticals Ltd. Co.), HBV HBsAg diagnostic kit (Beijing Wantai Biopharmaceuticals Ltd. Co.), and HBV nucleotide quantification kit (QIAGEN), respectively. 1 ug/mL of Lamivudine (LAM) was used as a positive control in the experiments. scAAV2/X-H1-NC-intron2 (X-NC) and scAAV2/8-H1-NC-intron2 (8-NC) were used as negative controls. […] The sample was collected every day for nine days and analyzed for the levels of HBeAg, HbsAg, and HBV DNA.

HBV DNA [2] = assay: suppression of HBV DNA in HepG2.2.15 cells; format: cell-based, Hepatitis B virus; settings: 1 ug/mL
Experimental: as §2

HBV HBsAg = assay: suppression of HBV HBsAg in HepG2.2.15 cells; format: cell-based, Hepatitis B virus; settings: 1 ug/mL
Experimental: as §2

Structure (SMILES): C=C1[C@H](CO)[C@@H](O)C[C@@H]1n1cnc2c(=O)[nH]c(N)nc21 [ETV, Entecavir]
- HBV DNA Levels (HBV DNA [1]; D0): 1
- HBV DNA Levels (HBV DNA [1]; D7): 5.7
- HBV DNA Levels (HBV DNA [1]; D14): 8.68
- HBV DNA Levels (HBV DNA [1]; D21): 0.66
- HBV DNA Levels (HBV DNA [1]; D28): 1.24
- HBV DNA Levels (HBV DNA [1]; D35): 1.08
- HBV DNA Levels (HBV DNA [1]; D56): 1.17
- HBV DNA Levels (HBV DNA [1]; D84): 1.1
- HBV DNA Levels (HBV DNA [1]; D112): 2.24
- HBV DNA Levels (HBV DNA [1]; D140): 1.91
- HBV DNA Levels (HBV DNA [1]; D168): 1.79
- HBV DNA Levels (HBV DNA [1]; D196): 2.17
- HBV DNA Levels (HBV DNA [1]; D224): 2.48
- HBV DNA Levels (HBV DNA [1]; D252): 1.42
- HBsAg Levels (HBsAg; D0): 1
- HBsAg Levels (HBsAg; D7): 1.52
- HBsAg Levels (HBsAg; D14): 1.51
- HBsAg Levels (HBsAg; D21): 1.08
- HBsAg Levels (HBsAg; D28): 1.55
- HBsAg Levels (HBsAg; D35): 1.8
- HBsAg Levels (HBsAg; D56): 1.21
- HBsAg Levels (HBsAg; D84): 1.18
- HBsAg Levels (HBsAg; D112): 0.43
- HBsAg Levels (HBsAg; D140): 1.04
- HBsAg Levels (HBsAg; D168): 1.23
- HBsAg Levels (HBsAg; D196): 1.48
- HBsAg Levels (HBsAg; D224): 1.16
- HBsAg Levels (HBsAg; D252): 0.72
- HBeAg Levels (HBeAg; D0): 130.7 PEIU/mL
- HBeAg Levels (HBeAg; D7): 138.6 PEIU/mL
- HBeAg Levels (HBeAg; D14): 92.1 PEIU/mL
- HBeAg Levels (HBeAg; D21): 66.5 PEIU/mL
- HBeAg Levels (HBeAg; D28): 78.3 PEIU/mL
- HBeAg Levels (HBeAg; D35): 48.2 PEIU/mL
- HBeAg Levels (HBeAg; D56): 131.4 PEIU/mL
- HBeAg Levels (HBeAg; D84): 105.1 PEIU/mL
- HBeAg Levels (HBeAg; D112): 133.8 PEIU/mL
- HBeAg Levels (HBeAg; D140): 178.5 PEIU/mL
- HBeAg Levels (HBeAg; D168): 125.9 PEIU/mL
- HBeAg Levels (HBeAg; D196): 150.5 PEIU/mL
- HBeAg Levels (HBeAg; D224): 123.5 PEIU/mL
- HBeAg Levels (HBeAg; D252): 155.1 PEIU/mL

Structure (SMILES): Nc1ccn([C@@H]2CS[C@H](CO)O2)c(=O)n1 [Lamivudine]
- HBV DNA Levels (HBV DNA [1]; D0): 1
- HBV DNA Levels (HBV DNA [1]; D7): 1.3
- HBV DNA Levels (HBV DNA [1]; D14): 0.69
- HBV DNA Levels (HBV DNA [1]; D21): 0.49
- HBV DNA Levels (HBV DNA [1]; D28): 0.87
- HBV DNA Levels (HBV DNA [1]; D35): 0.72
- HBV DNA Levels (HBV DNA [1]; D56): 0.97
- HBV DNA Levels (HBV DNA [1]; D84): 0.43
- HBV DNA Levels (HBV DNA [1]; D112): 1.64
- HBV DNA Levels (HBV DNA [1]; D140): 0.92
- HBV DNA Levels (HBV DNA [1]; D168): 0.63
- HBV DNA Levels (HBV DNA [1]; D196): 0.18
- HBV DNA Levels (HBV DNA [1]; D224): 0.12
- HBV DNA Levels (HBV DNA [1]; D252): 0.23
- HBsAg Levels (HBsAg; D0): 1
- HBsAg Levels (HBsAg; D7): 1
- HBsAg Levels (HBsAg; D14): 0.98
- HBsAg Levels (HBsAg; D21): 1.01
- HBsAg Levels (HBsAg; D28): 0.96
- HBsAg Levels (HBsAg; D35): 1.23
- HBsAg Levels (HBsAg; D56): 0.84
- HBsAg Levels (HBsAg; D84): 0.88
- HBsAg Levels (HBsAg; D112): 0.5
- HBsAg Levels (HBsAg; D140): 0.98
- HBsAg Levels (HBsAg; D168): 1.1
- HBsAg Levels (HBsAg; D196): 0.82
- HBsAg Levels (HBsAg; D224): 0.76
- HBsAg Levels (HBsAg; D252): 0.46
- level of HBeAg (HBV HBeAg; D0): 1
- level of HBeAg (HBV HBeAg; D1): 1.323
- level of HBeAg (HBV HBeAg; D2): 0.716
- level of HBeAg (HBV HBeAg; D3): 0.9612
- level of HBeAg (HBV HBeAg; D4): 1.035
- level of HBeAg (HBV HBeAg; D5): 1.916
- level of HBeAg (HBV HBeAg; D6): 0.9979
- level of HBeAg (HBV HBeAg; D7): 1.148
- level of HBeAg (HBV HBeAg; D8): 0.9362
- level of HBeAg (HBV HBeAg; D9): 0.5632
- level of HBV DNA (HBV DNA [2]; D0): 1
- level of HBV DNA (HBV DNA [2]; D1): 0.6797
- level of HBV DNA (HBV DNA [2]; D2): 0.358
- level of HBV DNA (HBV DNA [2]; D3): 0.357
- level of HBV DNA (HBV DNA [2]; D4): 0.1907
- level of HBV DNA (HBV DNA [2]; D5): 0.05735
- level of HBV DNA (HBV DNA [2]; D6): 0.02341
- level of HBV DNA (HBV DNA [2]; D7): 0.04001
- level of HBV DNA (HBV DNA [2]; D8): 0.02104
- level of HBV DNA (HBV DNA [2]; D9): 0.006153
- level of HBsAg (HBV HBsAg; D0): 1
- level of HBsAg (HBV HBsAg; D1): 0.7085
- level of HBsAg (HBV HBsAg; D2): 1.069
- level of HBsAg (HBV HBsAg; D3): 0.8838
- level of HBsAg (HBV HBsAg; D4): 0.8549
- level of HBsAg (HBV HBsAg; D5): 0.9837
- level of HBsAg (HBV HBsAg; D6): 1.128
- level of HBsAg (HBV HBsAg; D7): 1.284
- level of HBsAg (HBV HBsAg; D8): 1.324
- level of HBsAg (HBV HBsAg; D9): 0.7175
